{"source": "patent US9084799B2", "about": "“Inhaled combination therapy” (Pulmagen Therapeutics (Synergy) Limited, priority 2005, dated 2015)", "key": {"[1]": {"conditions": "Single inhaled exposure, dose 187.5 mg; asthma patients; Bohadana et al. (1980); cited from earlier work"}, "[2]": {"tested_on": "TS induced BAL inflammation", "assay": "Tobacco smoke (TS) induced BAL inflammation, 11 daily exposures, BAL cell counts", "format": "in vivo, A/J mice", "conditions": "for % Inhibition, BAL Total cells / % Inhibition, BAL lymphocytes / % Inhibition, BAL macrophages / % Inhibition, BAL neutrophils: 24 hrs following 11 daily TS exposures", "from_the_text": "Female inbred A/J mice (body weights on initial day of use: ˜20 g) were obtained from Harlan, full barrier bred and certified free from specified micro-organisms on receipt. The mice were housed, up to 5 per cage, in individually ventilated, polycarbonate solid bottomed cages (IVC) with grade 8 aspen chip bedding. Environment (airflow, temperature and humidity) within the cages was controlled by the IVC system (Techniplast). Food (RM 1, Special Diet Services) and water were provided ad libitum. Individual animals were identified by unique coloured “pentel” markings on their tails, weighed and randomly assigned to treatment groups.\nIn this exposure protocol, mice were exposed in groups of 5 in individual clear polycarbonate chambers (27 cm×16 cm×12 cm). The TS from the cigarettes was allowed to enter the exposure chambers at a flow rate of 100 ml/min. In order to minimise any potential problems caused by repeated exposure to a high level of TS (6 cigarettes), the exposure of the mice to TS was increased gradually over the exposure period to a maximum of 6 cigarettes. The exposure schedule used in this study was as follows:\nA further group of mice were exposed to air on a daily basis for equivalent lengths of time as controls (no TS exposure).\nThe trachea was cannulated using a Portex nylon intravenous cannula (pink luer fitting) shortened to approximately 8 mm. Phosphate buffered saline (PBS) containing heparin (10 units/ml) was used as the lavage fluid. A volume of 0.4 ml was gently instilled and withdrawn 3 times using a 1 ml syringe and then placed in an Eppendorf tube and kept on ice prior to subsequent determinations.\nLavage fluid was separated from cells by centrifugation and the supernatant decanted and frozen for subsequent analysis. The cell pellet was re-suspended in a known volume of PBS and total cell numbers calculated by counting a stained (Turks stain) aliquot under a microscope using a haemocytometer.\nThe residual cell pellet was diluted to approximately 10^5 cells per ml. A volume of 500 μl was placed in the funnel of a cytospin slide and centrifuged for 8 min at 800 rpm. The slide was air dried and stained using ‘Kwik-Diff’ solutions (Shandon) as per the proprietary instructions. When dried and cover-slipped, differential cells were counted using light microscopy. Up to 400 cells were counted by unbiased operator using light microscopy. Cells were differentiated using standard morphometric techniques.\nSince tests for normality were positive the data was subjected to a one way analysis of variance test (ANOVA), followed by a Bonferroni correction for multiple comparisons in order to test for significance between treatment groups. A “p” value of <0.05 was considered to be statistically significant. Percentage inhibitions were automatically calculated within the Excel spreadsheets for the cell data using the formula below: […]"}, "[3]": {"conditions": "cited from earlier work"}, "[4]": {"conditions": "intra-nasal 0.1 mg/kg theophylline/0.1 mg/kg dexamethasone versus oral 1 mg/kg theophylline/0.3 mg/kg dexamethasone", "experimental": "(§1) The mice were terminally anaesthetised and blood collected by cardiac puncture into syringes containing 20 U lithium Heparin in 5 ul. The collected blood was mixed and decanted into eppendorf tubes before centrifugation in a microfuge. Plasma was collected and stored at −80° C. prior to analysis by an HPLC/MS/MS method. The equipment used in the measurement of plasma levels were a Micromann Quatro Micro Mass Spectrometer (Micromass UK Limited) and a Waters 2795 Alliance HT liquid chromatograph (Waters USA).\n(§2) Samples were prepared for analysis by adding 200 μl of acetonitrile (containing 0.25 mg/l dextrorphan as an internal standard) to 50 μl of each thawed sample and standard and mixed vigorously. Each sample and standard was then centrifuged at 10000 g for 2 minutes and the supernatant removed for LC-MS/MS analysis.\n(§3) Positive ions for parent compound and a specific fragment product were monitored in a Multiple Reaction Monitoring mode using a Micromass Quatro Micro Mass Spectrometer with Micromass MassLynx software version 4.0. A 25 μl aliquot of each sample and standard was injected onto the liquid chromatography system. Lowest order of quantification (LOQ) was determined as 0.016 mg/L with the detection limit being 0.003 mg/L."}, "in vivo": {"assay": "in vivo", "conditions": "A/J, mouse, 1 hour post dosing", "experimental": "as §1, §2, §3"}, "[5]": {"conditions": "cited from earlier work", "remark": "listed apart in the source"}, "[6]": {"tested_on": "key inflammatory cells in COPD", "conditions": "500 mcg inhaled twice daily, 3 months, COPD patients; Hattatowa et al. 2002; cited from earlier work"}, "mouse model of asthma": {"tested_on": "mouse model of asthma", "conditions": "350 mcg/kg intra-nasally; Shen et al. 2002; cited from earlier work"}, "[7]": {"conditions": "Intra-nasal dosing, Dexamethasone 0.1 mg/kg"}, "[8]": {"conditions": "Oral dosing, Dexamethasone 0.3 mg/kg"}, "[9]": {"conditions": "Intra-nasal dosing, Theophylline 0.5 mg/kg"}, "[10]": {"conditions": "Oral dosing, Theophylline 3 mg/kg"}, "[11]": {"conditions": "monotherapy, oral or intra-nasal"}}, "note": "Like-named read-outs stand apart in the source and are kept apart here."}
{"compound": "Cn1c(=O)c2[nH]cnc2n(C)c1=O.NCCN", "note": "[Aminophylline, theophylline ethylenediamine]", "values": [{"measurement": "Net peak theophylline plasma level", "setting": "[1]", "value": 0.91, "unit": "mg/L"}]}
{"compound": "C[C@@H]1C[C@H]2[C@@H]3CCC4=CC(=O)C=C[C@]4(C)[C@@]3(F)[C@@H](O)C[C@]2(C)[C@@]1(O)C(=O)CO", "note": "[Dexamethasone]", "values": [{"measurement": "% Inhibition, BAL Total cells", "setting": "[2]; [7]", "value": 13, "unit": "%"}, {"measurement": "% Inhibition, BAL lymphocytes", "setting": "[2]; [7]", "value": 14, "unit": "%"}, {"measurement": "% Inhibition, BAL macrophages", "setting": "[2]; [7]", "value": 10, "unit": "%"}, {"measurement": "% Inhibition, BAL neutrophils", "setting": "[2]; [7]", "value": 16, "unit": "%"}, {"measurement": "% Inhibition, BAL Total cells", "setting": "[2]; [8]", "value": "−16", "unit": "%"}, {"measurement": "% Inhibition, BAL lymphocytes", "setting": "[2]; [8]", "value": "−7", "unit": "%"}, {"measurement": "% Inhibition, BAL macrophages", "setting": "[2]; [8]", "value": "−14", "unit": "%"}, {"measurement": "% Inhibition, BAL neutrophils", "setting": "[2]; [8]", "value": "−46", "unit": "%"}]}
{"compound": "Cn1c(=O)c2[nH]cnc2n(C)c1=O", "note": "[Theophylline, 3,7-dihydro-1,3-dimethyl-1H-purine-2,6-dione]", "values": [{"measurement": "plasma concentration of theophylline, median value", "setting": "[3]; 250 or 375 mg theophylline twice daily with 400 mcg budesonide, asthma patients, Evans et al.", "value": 8700, "unit": "ng/mL"}, {"measurement": "Average theophylline plasma level", "setting": "[3]; Daily dose 400 mg oral, 4 weeks, Alexander et al. (1980)", "value": 15.1, "unit": "mg/L"}, {"measurement": "Average theophylline plasma level", "setting": "[3]; Daily dose 600 mg oral, 4 weeks, Iversen et al. (1992)", "value": 7.1, "unit": "mg/L"}, {"measurement": "Average theophylline plasma level", "setting": "[3]; Daily dose 300-600 mg oral, 4 weeks, Culpitt et al. (2002)", "value": 9.5, "unit": "mg/L"}, {"measurement": "theophylline plasma level in 20/25 patients (average not quoted)", "setting": "[3]; Phyllocontin or Uniphylline, daily dose 562-573 mg oral, 4 weeks, U.S. Pat. No. 6,025,360", "value": "had levels ≧5 mg/L"}, {"measurement": "systemic theophylline levels, times lower intra-nasal vs oral", "setting": "[4]", "value": "~17", "unit": "times"}, {"measurement": "concentration at 1 h", "setting": "in vivo; mean theophylline plasma level, Intra-nasal 0.1 mg/kg theophylline in combination with 0.1 mg/kg Dexamethasone, TS exposed mice", "value": "22 ± 9", "unit": "ng/mL"}, {"measurement": "concentration at 1 h", "setting": "in vivo; mean theophylline plasma level, Intra-nasal 0.25 mg/kg theophylline in combination with 0.1 mg/kg Dexamethasone, TS exposed mice", "value": "45 ± 10", "unit": "ng/mL"}, {"measurement": "concentration at 1 h", "setting": "in vivo; mean theophylline plasma level, Intra-nasal 0.5 mg/kg theophylline in combination with 0.1 mg/kg Dexamethasone, TS exposed mice", "value": "74 ± 13", "unit": "ng/mL"}, {"measurement": "concentration at 1 h", "setting": "in vivo; mean theophylline plasma level, Oral 1 mg/kg theophylline in combination with 0.3 mg/kg Dexamethasone, TS exposed mice", "value": "479 ± 47", "unit": "ng/mL"}, {"measurement": "concentration at 1 h", "setting": "in vivo; mean theophylline plasma level, Oral 3 mg/kg theophylline in combination with 0.3 mg/kg Dexamethasone, TS exposed mice", "value": "1370 ± 192", "unit": "ng/mL"}, {"measurement": "concentration at 1 h", "setting": "in vivo; systemic theophylline exposure (plasma level), intra-nasal administration at the doses used (0.1-0.5 mg/kg)", "value": "< 100", "unit": "ng/mL"}, {"measurement": "mean plasma half-life", "setting": "[5]; adults", "value": "about 8 hours"}, {"measurement": "bioavailability from the gastrointestinal tract", "setting": "[5]; oral absorption", "value": "90-100%"}, {"measurement": "mean plasma half-life", "setting": "[5]; premature neonates", "value": "approximately 30 hours"}, {"measurement": "time to peak levels following ingestion", "setting": "[5]; slowed by the presence of food", "value": "1 to 2", "unit": "h"}, {"measurement": "mean plasma half-life", "setting": "[5]; up to the age of 20", "value": "approximately 3.5 hours"}, {"measurement": "mean plasma half-life", "setting": "[5]; up to the first year of life", "value": 5, "unit": "h"}, {"measurement": "mean plasma half-life", "setting": "[5]; within the first 6 months", "value": 12, "unit": "h"}, {"measurement": "% Inhibition, BAL Total cells", "setting": "[2]; [9]", "value": 16, "unit": "%"}, {"measurement": "% Inhibition, BAL lymphocytes", "setting": "[2]; [9]", "value": 14, "unit": "%"}, {"measurement": "% Inhibition, BAL macrophages", "setting": "[2]; [9]", "value": 3, "unit": "%"}, {"measurement": "% Inhibition, BAL neutrophils", "setting": "[2]; [9]", "value": 25, "unit": "%"}, {"measurement": "% Inhibition, BAL Total cells", "setting": "[2]; [10]", "value": "−11", "unit": "%"}, {"measurement": "% Inhibition, BAL lymphocytes", "setting": "[2]; [10]", "value": 1, "unit": "%"}, {"measurement": "% Inhibition, BAL macrophages", "setting": "[2]; [10]", "value": "−4", "unit": "%"}, {"measurement": "% Inhibition, BAL neutrophils", "setting": "[2]; [10]", "value": "−10", "unit": "%"}, {"measurement": "inhibition of total number of cells recovered in the BAL induced by TS exposure", "setting": "[2]; [11]", "value": "Neither theophylline nor dexamethasone monotherapy when given orally or by the intra-nasal route significantly inhibited"}, {"measurement": "inhibitory effect on specific cell types in BAL (macrophages, neutrophils, lymphocytes)", "setting": "[2]; [11]", "value": "No statistically significant inhibitory effect"}]}
{"compound": "(6(,11(,16(,17( )-6,9-difluoro-11-hydroxy-16-methyl-3-oxo-17-(1-oxopropoxy)androsta-1,4-diene-17-carbothioic acid S-(fluoromethyl) ester [Fluticasone]", "values": [{"measurement": "reductions in key inflammatory cells in bronchial biopsies", "setting": "[6]", "value": "did not detect significant reductions"}]}
{"compound": "(+)-[(RS)-16a,17a-Butylidenedioxy-11b, 21-dihydroxy-1,4-pregnadiene-3,20-dione] [Budesonide]", "values": [{"measurement": "efficacy in mouse model of asthma", "setting": "mouse model of asthma", "value": "efficacious"}]}
